Experimental data taken from DBAASP.
In brackets after ≈: the same amount, converted by molar mass.

How the values were obtained:
Experiment in all cases: ≥ marks a high value that may be exact or a test limit, other limits are often not marked, values filed in µg/mL are converted to µM
[1] = test system: Micrococcus luteus ATCC 4698
[2] = test system: Staphylococcus aureus NCTC 10788
[3] = test system: Escherichia coli NCTC 10418
[4] = test system: Candida albicans NCPF 1467
[5] = test system: Klebsiella pneumoniae ATCC 10031
[6] = test system: Escherichia coli DH5alpha
[7] = test system: Salmonella enterica subsp. enterica serovar Typhimurium ATCC 14028
[8] = test system: Staphylococcus epidermidis ATCC 12228
[9] = test system: Staphylococcus aureus ATCC 6538
Micrococcus luteus A270 = test system: Micrococcus luteus A270
Listeria innocua = test system: Listeria innocua
Escherichia coli = test system: Escherichia coli
[10] = test system: Candida albicans NCYC 1467
Escherichia coli JW0013 = test system: Escherichia coli JW0013
[11] = test system: Pectobacterium carotovorum subsp. carotovorum DSM 30168
[12] = test system: Pseudomonas syringae pv. syringae DSM 10604
[13] = test system: Clavibacter michiganensis subsp. michiganensis DSM 46294
[14] = test system: Xanthomonas vesicatoria DSM 50861
[15] = test system: Pseudomonas corrugata DSM 7228
[16] = test system: Pseudomonas syringae pv. tomato DC3000

Which MIC [1] does the source give for `NCCCC[C@@H]1NC(=O)[C@H](Cc2c[nH]c3ccccc23)NC(=O)CNC(=O)CNC(=O)[C@@H](N)CSSC[C@@H](C(=O)O)NC(=O)[C@H](CCCN=C(N)N)NC(=O)[C@H](CCCCN)NC(=O)[C@H](CCCN=C(N)N)NC1=O` [CGGWKRKRC] here?
Its MIC is 0.8 µM (≈ 0.873 µg/mL).

Which MIC [2] does the source give for `CC[C@H](C)[C@H](NC(=O)CNC(=O)[C@@H](NC(=O)[C@H](C)NC(=O)[C@@H](NC(=O)[C@H](Cc1cnc[nH]1)NC(=O)[C@@H]1CCCN1C(=O)[C@@H](NC(=O)[C@H](CCSC)NC(=O)[C@H](CO)NC(=O)[C@H](Cc1ccccc1)NC(=O)[C@@H](N)Cc1ccccc1)[C@@H](C)CC)[C@@H](C)CC)[C@@H](C)O)C(=O)N[C@@H](C)C(=O)N[C@@H](CO)C(=O)N[C@@H](CC(C)C)C(=O)N[C@H](C(=O)N[C@@H](CCCCN)C(=O)N[C@@H](CC(N)=O)C(=O)N[C@@H](CC(C)C)C(N)=O)C(C)C` [FFSMIPHIATGIASLVKNL] here?
Its MIC is 15.5 µM (≈ 32 µg/mL).

What about the MIC [3] of the same molecule?
The MIC was no less than 249 µM.

What about the MIC [4] of the same molecule?
Its MIC is 31.1 µM (≈ 64 µg/mL).

For `CC[C@H](C)[C@@H]1NC(=O)[C@H](CCCCN)NC(=O)[C@@H](NC(=O)[C@@H](NC(=O)[C@@H](NC(=O)[C@@H](NC(=O)[C@@H]2CCCN2C(=O)[C@H](CC(C)C)NC(=O)[C@H](Cc2ccccc2)NC(=O)[C@H](CC(N)=O)NC(=O)[C@H](C)NC(=O)[C@H](C)NC(=O)[C@H](CC(C)C)NC(=O)CNC(=O)[C@H](C)NC(=O)[C@H](CC(C)C)NC(=O)[C@@H](N)CC(C)C)[C@@H](C)O)[C@@H](C)CC)[C@@H](C)CC)CSSC[C@@H](C(=O)O)NC(=O)[C@H](CCCCN)NC(=O)[C@H](Cc2ccc(O)cc2)NC(=O)[C@H](CO)NC1=O` [LLAGLAANFLPTIICKISYKC], which MIC [5] is on record?
The MIC was no less than 44.4 µM.

And the MIC [6]?
Its MIC is no less than 44.4 µM.

And the MIC [7]?
The MIC was greater than 44.4 µM.

With `CC(C)C[C@H](NC(=O)[C@H](CC(C)C)NC(=O)[C@H](CCCCN)NC(=O)[C@H](CO)NC(=O)[C@@H](NC(=O)[C@H](C)NC(=O)[C@H](CCCCN)NC(=O)[C@H](Cc1ccccc1)NC(=O)[C@H](CC(C)C)NC(=O)[C@H](C)NC(=O)CNC(=O)[C@H](CC(C)C)NC(=O)[C@@H](N)Cc1ccccc1)C(C)C)C(=O)O` [FLGALFKAVSKLL] as the molecule, how does the MIC [8] read?
Its MIC is 15.6 µM (≈ 22 µg/mL).

And the MIC [6]?
Its MIC is 25.6 µM (≈ 36 µg/mL).

What about the MIC [1] of the same molecule?
The MIC was 4.98 µM (≈ 7 µg/mL).

What about the MIC [9] of the same molecule?
The MIC was 8.53 µM (≈ 12 µg/mL).

For `CC[C@H](C)[C@H](NC(=O)CNC(=O)CNC(=O)[C@H](C)NC(=O)[C@@H](NC(=O)[C@H](Cc1cnc[nH]1)NC(=O)[C@@H]1CCCN1C(=O)[C@@H](NC(=O)[C@H](CCSC)NC(=O)[C@H](CO)NC(=O)[C@H](CC(C)C)NC(=O)[C@@H](N)Cc1ccccc1)[C@@H](C)CC)[C@@H](C)CC)C(=O)N[C@@H](C)C(=O)N[C@@H](CO)C(=O)N[C@@H](CC(C)C)C(=O)N[C@H](C(=O)N[C@@H](CCCCN)C(=O)N[C@@H](CC(N)=O)C(=O)N[C@@H](CC(C)C)C(N)=O)C(C)C` [FLSMIPHIAGGIASLVKNL], which MIC [2] is on record?
The MIC was 16.2 µM (≈ 32 µg/mL).

What about the MIC [3] of the same molecule?
Its MIC is no less than 258 µM.

What about the MIC [4] of the same molecule?
The MIC was no less than 32.3 µM.

For `CC(C)C[C@H](NC(=O)[C@H](CC(C)C)NC(=O)[C@H](CO)NC(=O)[C@H](Cc1cnc[nH]1)NC(=O)[C@H](CO)NC(=O)[C@H](CC(C)C)NC(=O)[C@H](CC(C)C)NC(=O)[C@H](CCCCN)NC(=O)[C@H](Cc1ccccc1)NC(=O)[C@H](CC(N)=O)NC(=O)[C@@H](N)C(C)C)C(=O)O` [VNFKLLSHSLL], which MIC (Micrococcus luteus A270) is on record?
Its MIC is 24 µM (≈ 30.5 µg/mL).

And the MIC (Listeria innocua)?
The MIC was 24 µM (≈ 30.5 µg/mL).

And the MIC (Escherichia coli)?
Its MIC is 98 µM (≈ 125 µg/mL).

For `CSCC[C@H](NC(=O)CN)C(=O)N[C@@H](CCCN=C(N)N)C(=O)N1CCC[C@H]1C(=O)N1CCC[C@H]1C(=O)N[C@@H](Cc1c[nH]c2ccccc12)C(=O)N[C@@H](Cc1ccccc1)C(N)=O` [GMRPPWF], which MIC [2] is on record?
Its MIC is no less than 288 µM.

What about the MIC [3] of the same molecule?
Its MIC is no less than 575 µM.

And the MIC [4]?
Its MIC is no less than 144 µM.

`CC[C@H](C)[C@H](NC(=O)[C@H](CC(=O)O)NC(=O)[C@H](CCCCN)NC(=O)[C@H](Cc1c[nH]c2ccccc12)NC(=O)[C@H](CC(C)C)NC(=O)[C@H](C)N)C(=O)N[C@@H](CC(C)C)C(=O)N[C@@H](CCCCN)C(=O)N[C@@H](CC(N)=O)C(=O)N[C@@H](C)C(=O)NCC(=O)N[C@@H](CCCCN)C(=O)N[C@@H](C)C(=O)N[C@@H](C)C(=O)N[C@@H](CC(C)C)C(=O)N[C@@H](CC(N)=O)C(=O)N[C@@H](CCC(=O)O)C(=O)N[C@H](C(=O)N[C@@H](CC(N)=O)C(=O)N[C@@H](CCC(N)=O)C(=O)N[C@H](C(=O)N[C@H](C(=O)N[C@@H](CCC(N)=O)C(N)=O)C(C)C)[C@@H](C)CC)[C@@H](C)CC` [ALWKDILKNAGKAALNEINQIVQ] was tested. Which MIC [2] did it give?
The MIC was no less than 256 µM.

What about the MIC [10] of the same molecule?
Its MIC is no less than 64 µM.

And the MIC [3]?
Its MIC is no less than 32 µM.

Which MIC (Escherichia coli JW0013) does the source give for `CC[C@H](C)[C@H](NC(=O)[C@H](CCCN=C(N)N)NC(=O)[C@H](CCCN=C(N)N)NC(=O)[C@@H]1CCCN1C(=O)[C@@H]1CCCN1C(=O)[C@H](CCCN=C(N)N)NC(=O)[C@@H]1CCCN1C(=O)[C@H](CCCN=C(N)N)NC(=O)[C@@H]1CCCN1C(=O)[C@H](CC(C)C)NC(=O)[C@H](Cc1ccc(O)cc1)NC(=O)[C@H](CCCCN)NC(=O)[C@@H]1CCCN1C(=O)[C@H](CCCCN)NC(=O)[C@H](CC(=O)O)NC(=O)[C@@H](N)C(C)C)C(=O)N[C@@H](Cc1ccc(O)cc1)C(=O)N[C@@H](CC(N)=O)C(=O)N[C@@H](CCCN=C(N)N)C(N)=O` [VDKPKYLPRPRPPRRIYNR] here?
Its MIC is 1.36 µM (≈ 3.3 µg/mL).

Which results are given for `CC[C@H](C)[C@H](NC(=O)[C@H](C)NC(=O)[C@H](CO)NC(=O)[C@@H](NC(=O)[C@H](CC(C)C)NC(=O)CNC(=O)[C@H](C)NC(=O)[C@@H](NC(=O)[C@@H](NC(=O)[C@H](CO)NC(=O)[C@@H]1CCCN1C(=O)[C@@H](NC(=O)[C@H](CC(C)C)NC(=O)[C@H](CO)NC(=O)[C@H](Cc1ccccc1)NC(=O)[C@H](CC(C)C)NC(=O)[C@@H](N)Cc1ccccc1)[C@@H](C)CC)C(C)C)[C@@H](C)CC)C(C)C)C(=O)N[C@@H](CCCN=C(N)N)C(=O)N[C@@H](CC(N)=O)C(N)=O` [FLFSLIPSVIAGLVSAIRN]?
MIC [2]: 7.93 µM (≈ 16 µg/mL); MIC [3]: ≥ 254 µM; MIC [4]: 15.9 µM (≈ 32 µg/mL)

For `CC[C@H](C)[C@H](NC(=O)[C@H](CCCN=C(N)N)NC(=O)[C@H](CCCN=C(N)N)NC(=O)[C@@H]1CCCN1C(=O)[C@@H]1CCCN1C(=O)[C@H](CCCN=C(N)N)NC(=O)[C@@H]1CCCN1C(=O)[C@H](CCCN=C(N)N)NC(=O)[C@@H]1CCCN1C(=O)[C@H](CC(C)C)NC(=O)[C@H](Cc1ccc(O)cc1)NC(=O)[C@H](CC(=O)O)NC(=O)[C@@H]1CCCN1C(=O)[C@H](CCCCN)NC(=O)[C@H](CC(=O)O)NC(=O)[C@@H](N)C(C)C)C(=O)N[C@@H](Cc1ccc(O)cc1)C(=O)N[C@@H](CC(N)=O)C(=O)N[C@@H](CCCN=C(N)N)C(N)=O` [VDKPDYLPRPRPPRRIYNR], which MIC (Escherichia coli JW0013) is on record?
The MIC was 1.37 µM (≈ 3.3 µg/mL).

How did the MIC [2] turn out when `CC[C@H](C)[C@H](NC(=O)CNC(=O)[C@H](CO)NC(=O)[C@H](CC(C)C)NC(=O)[C@H](CC(C)C)NC(=O)CN)C(=O)N[C@@H](CC(C)C)C(=O)NCC(=O)N[C@@H](C)C(=O)NCC(=O)N[C@@H](CCCCN)C(=O)N[C@@H](CCCCN)C(=O)N[C@H](C(=O)N[C@H](C(=O)O)C(C)C)[C@@H](C)CC` [GLLSGILGAGKKIV] was run?
Its MIC is no less than 32 µM.

What about the MIC [10] of the same molecule?
Its MIC is no less than 32 µM.

And the MIC [3]?
Its MIC is no less than 64 µM.

With `CC(C)C[C@H](NC(=O)[C@H](C)NC(=O)[C@H](CC(C)C)NC(=O)[C@H](CCCN=C(N)N)NC(=O)[C@H](CCCN=C(N)N)NC(=O)[C@@H](N)CCCCN)C(=O)N[C@@H](Cc1ccccc1)C(=O)N[C@@H](CCCN=C(N)N)C(=O)N[C@@H](CC(C)C)C(=O)N[C@@H](Cc1ccccc1)C(=O)N[C@@H](CCCN=C(N)N)C(=O)N[C@@H](CC(C)C)C(=O)N[C@@H](C)C(=O)N[C@@H](CC(C)C)C(=O)N[C@@H](CCCCN)C(=O)N[C@@H](CC(C)C)C(=O)N[C@H](C(=O)N[C@@H](CC(C)C)C(=O)N[C@@H](CCCCN)C(=O)N[C@@H](CCCCN)C(N)=O)C(C)C` [KRRLALFRLFRLALKLVLKK] as the molecule, how does the MIC [11] read?
The MIC was 4.03 µM (≈ 10 µg/mL).

And the MIC [12]?
Its MIC is 4.03 µM (≈ 10 µg/mL).

And the MIC [13]?
Its MIC is 1.01 µM (≈ 2.5 µg/mL).

What about the MIC [14] of the same molecule?
The MIC was 1.01 µM (≈ 2.5 µg/mL).

What about the MIC [15] of the same molecule?
Its MIC is 4.03 µM (≈ 10 µg/mL).

And the MIC [16]?
Its MIC is 1.01 µM (≈ 2.5 µg/mL).
